According to PMC11237012, “Synthesis and preliminary evaluation of novel PET probes for GSK-3 imaging” (Scientific Reports, 2024):
Several values for one entry are separate records, joined by “and”; a condition that tells them apart may be missing. Equal values may be shown once. Where a name gives a salt, the structure may show the parent alone. Blank lines part the entries; values can stand above or below the compound they belong to.

How the values were obtained:
GSK-3β = target: GSK-3β; parameters: method as in PMID 33840834, PMID 35295885, PMID 34423266; conditions: cited from earlier work
[1] = parameters: method as in PMID 33840834, PMID 35295885, PMID 34423266; conditions: 2 min post injection; Sprague Dawley rats; cited from earlier work
[2] = parameters: method as in PMID 33492962, doi:10.1002/ejoc.202201031; conditions: cited from earlier work
[3] = parameters: method as in PMID 33492962, doi:10.1002/ejoc.202201031; conditions: FVB/NJ mice; cited from earlier work
[4] = In vitro parallel artificial membrane permeability assay (PAMPA), blood–brain barrier permeability; conditions: for Papp: PAMPA
Text: To evaluate the blood–brain barrier permeability and binding affinity of the developed PET probes[^18F]2 and [^18F]6, their respective nonradioactive versions were used. For blood–brain barrier permeability evaluation, we applied in vitro parallel artificial membrane permeability assay (PAMPA) and evaluated binding affinity via an inhibition assay to determine the IC50 value, as described in method section. We further measured the stability of both PET probes, [^18F]2 and [^18F]6, using radio thin layer chromatography (radio-TLC) over time, as also described in the method section. […] The blood–brain permeability was expressed through the permeability coefficient, P (10^–6 cm/s) and -logPe.

human GSK-3α = target: T1, human GSK-3α (Homo sapiens, UniProt P49840); assay: GSK-3α kinase inhibition assay (ADP-Glo); assay type: biochemical
T1 construct: purchased Promega Corporation, Madison, WI
Text: (§1) Phosphorylation of glycogen synthase kinase substrate was quantified using a luminescent ADP-Glo™ Kinase assay system (Promega Corporation, Madison, WI).

human GSK-3β = target: T2, human GSK-3β (Homo sapiens, UniProt P49841); assay: GSK-3β kinase inhibition assay (ADP-Glo); assay type: biochemical
T2 construct: purchased Promega Corporation, Madison, WI
Text: as §1

[5] = Radiochemical stability in isotonic NaCl solution (rad-TLC); assay type: physicochemical; conditions: 37 °C
Experimental: (§2) The stability of PET probes [^18F]2 and [^18F]6 was measured in isotonic NaCl solution (0.9% NaCl) and mouse and human serums at 37 °C for up to 120 min by rad-TLC at 0 min, 30 min, 60 min and 120 min post incubation. The results obtained are presented in Fig. 5 and SI-Figs. S10–S15, SI-Table S1. […] The plausible explanation of the instability of [^18F]6 could be attributed to the covalent interaction of [^18F]6’s SO2F group with primary amines of amino acid residues present in the protein rich mouse and human serums. In fact, in an unrelated study, Zhao et al. reported formation of sulfonamide bond between sulfuryl fluoride and primary amine of conserved lysine residues of different kinases. […] Based on 2’s favorable blood–brain barrier permeability, nanomolar binding affinity and PET probe [^18F]2’s excellent stability in both mouse and human serums, further in vivo evaluations were performed only with PET probe [^18F]2.
(§3) Stability of [^18F]2 and [^18F]6 was assessed in isotonic NaCl solution and human and mouse serums. To perform this stability assay, 100 µL of [^18F]2 (~ 37.0 MBq) or 100 µL of [^18F]6 (~ 37.0 MBq) as in final formulation was added to 100 µL of human serum or mouse serum in a microcentrifuge tube. The resultant mixture was incubated at 37 °C for 120 min. To assess the radiochemical stability of the probes, a small aliquot (~ 0.5 µL) was taken out from the mixture in triplicate at 0 min, 30 min, 60 min and 120 min during incubation, and analyzed on a rad-TLC using 0.5:9.5 methanol: chloroform as a mobile phase using i-TLC to estimate the stability of [^18F]2 or [^18F]6 at different time points post-incubation. After Stability preparative processes initial i-TLC development was considered as 0 min.

[6] = Radiochemical stability in mouse serum (rad-TLC); assay type: in vitro ADME; conditions: 37 °C
Experimental: as §2, §3

[7] = Radiochemical stability in human serum (rad-TLC); assay type: in vitro ADME; conditions: 37 °C
Experimental: as §2, §3

[8] = pH 7.4, Permeability coefficient, P, Average ± SD

T2 sequence (P49841 whole entry): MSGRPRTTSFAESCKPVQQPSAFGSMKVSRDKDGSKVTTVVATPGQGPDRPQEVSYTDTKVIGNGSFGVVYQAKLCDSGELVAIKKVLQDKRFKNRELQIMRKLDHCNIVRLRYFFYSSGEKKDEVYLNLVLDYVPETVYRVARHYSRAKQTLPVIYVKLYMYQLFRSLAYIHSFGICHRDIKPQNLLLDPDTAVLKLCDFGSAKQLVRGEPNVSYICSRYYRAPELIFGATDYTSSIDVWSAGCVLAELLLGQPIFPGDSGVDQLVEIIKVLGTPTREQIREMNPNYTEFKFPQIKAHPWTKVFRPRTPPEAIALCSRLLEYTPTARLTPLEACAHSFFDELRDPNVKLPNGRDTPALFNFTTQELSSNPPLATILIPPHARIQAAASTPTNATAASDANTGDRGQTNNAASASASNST
T1 sequence (P49840 whole entry): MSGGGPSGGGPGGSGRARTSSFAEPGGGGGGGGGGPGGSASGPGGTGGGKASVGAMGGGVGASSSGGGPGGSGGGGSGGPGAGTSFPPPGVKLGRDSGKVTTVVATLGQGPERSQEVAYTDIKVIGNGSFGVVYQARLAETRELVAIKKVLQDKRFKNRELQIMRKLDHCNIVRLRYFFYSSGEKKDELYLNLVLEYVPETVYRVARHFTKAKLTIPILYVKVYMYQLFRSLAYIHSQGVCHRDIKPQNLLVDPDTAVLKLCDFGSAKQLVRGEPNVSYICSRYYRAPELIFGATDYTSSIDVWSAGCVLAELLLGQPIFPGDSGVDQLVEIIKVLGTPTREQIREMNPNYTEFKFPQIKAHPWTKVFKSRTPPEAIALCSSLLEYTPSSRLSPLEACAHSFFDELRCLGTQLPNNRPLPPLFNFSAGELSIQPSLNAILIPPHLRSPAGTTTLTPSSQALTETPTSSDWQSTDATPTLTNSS

SMILES: COc1ccc(-c2ocnc2C(=O)NCCCc2ccc([18F])nc2)cc1Cl [[^18F]OCM50]
- Ki (GSK-3β): 0.28 nM
- standardized uptake value (SUV) [1]: ~ 2.0

SMILES: O=C(Nc1cnccc1-c1ccc([18F])nc1)c1ccnc(NC(=O)C2CC2)c1 [[^18F]CNBI]
- metabolic stability [2]: moderate
- brain uptake [3]: poor

- Papp ([4]; pH 7.4, Average ± SD): 31.6 ×10⁻⁶ cm/s
- Papp [4, 8]: 36 ± 20 ×10⁻⁶ cm/s
- Permeability coefficient, P, Average ± SD ([4]; pH 7.4): 38 ± 20 (n = 3) 10^–6 cm/s
SMILES: O=C(Nc1cnccc1-c1ccc(F)cc1)c1ccnc(NC(=O)C2CC2)c1 [Compound 2, 2-(cyclopropanecarboxamido)-N-(4-(4-fluorophenyl)pyridin-3-yl)isonicotinamide]

- Papp [4, 8]: 32 ± 1 ×10⁻⁶ cm/s
SMILES: CC(C)NCC(O)COc1cccc2ccccc12 (centres unmarked) [Propranolol HCl, reference compound]

SMILES: O=C(Nc1cnccc1-c1ccc(OS(=O)(=O)F)cc1)c1ccnc(NC(=O)C2CC2)c1 [Compound 6, 4-(3-(2-(cyclopropanecarboxamido)isonicotinamido)pyridin-4-yl)phenyl sulfurofluoridate]
- IC50 (human GSK-3α): 55.7 ± 4.89 nM
- IC50 (human GSK-3β): 44 ± 2.84 nM
- Papp ([4]; pH 7.4): 8.75 ± 3.9 ×10⁻⁶ cm/s

SMILES: O=C(Nc1cnccc1-c1ccc(OS(=O)(=O)[18F])cc1)c1ccnc(NC(=O)C2CC2)c1 [[^18F]6]
- Percentage of intact probe ([5]; 0 min): 100 ± 0.0%
- Percentage of intact probe ([5]; 30 min): 100 ± 0.0%
- Percentage of intact probe ([5]; 60 min): 100 ± 0.0%
- Percentage of intact probe ([6]; 30 min): 87.30 ± 8.99%
- Percentage of intact probe ([6]; 60 min): 81.17± 6.38%
- Percentage of intact probe ([6]; 120 min): 67.01 ± 4.93% and 67.01 ± 6.38%
- Percentage of intact probe ([7]; 30 min): 92.46± 2.61% and 92.46 ± 2.6%
- Percentage of intact probe ([7]; 60 min): 80.13± 14.24%
- Percentage of intact probe ([7]; 120 min): 66.20 ± 6.38% and 66.20 ± 4.93%
